Values quoted from earlier work as cited in PubChem BioAssay AID1259409 (Chemical Carcinogenesis Research Information System (CCRIS), 2018).

Test system: rodent chemically induced tumor inhibition, incidence and multiplicity
Assay: CCRIS tumor inhibitor studies
Settings: Route [Inhibitor]: ORAL

Question: Which “tumour outcome (control, treated, inhibition, significance)” value (Carcinogen: 1,2-DIMETHYLHYDRAZINE, 540-73-8, Dose [Inhibitor]: 600 MG/KG OF DIET DAILY STARTING AT AGE 10 WK AND CONTINUING FOR DURATION OF STUDY (STUDY DURATION: 28 WK), Species: MOUSE, Strain/Sex: LACA/MALE, Target Tissue: Type of Lesion: COLON: ADENOMA, CARCINOMA, Dose [Carcinogen]: 10 MG/KG BW 1/WK FOR 28 WK, Promoter: NONE USED) does the source give for Cc1c(C)c2c(c(C)c1O)CC[C@@](C)(CCC[C@H](C)CCC[C@H](C)CCCC(C)C)O2 here?
Answer: 34/42 (81%), 31/51 (61%), 25%, p<0.25

Question: What about the “tumour outcome (control, treated, inhibition, significance)” value (Carcinogen: 2-AMINO-1-METHYL-6-PHENYL-1H-IMIDAZO[4,5-B]PYRID INE, 105650-23-5, Dose [Inhibitor]: 0, 1% IN THE DIET FOR 52 WK (STUDY DURATION: 52 WK), Species: RAT, Strain/Sex: F344/FEMALE, Target Tissue: Type of Lesion: MAMMARY GLAND: ADENOCARCINOMA FIBROADENOMA, Dose [Carcinogen]: 0.02% IN THE DIET FOR 52 WK, Promoter: NONE USED) of the same compound?
Answer: 2/20 (10%), 1/20 (5%), 50%, not significant

Question: What about the “tumour outcome (control, treated, inhibition, significance)” value (Carcinogen: 2-AMINO-1-METHYL-6-PHENYL-1H-IMIDAZO[4,5-B]PYRID INE, 105650-23-5, Dose [Inhibitor]: 0, 1% IN THE DIET FOR 52 WK (STUDY DURATION: 52 WK), Species: RAT, Strain/Sex: F344/FEMALE, Target Tissue: Type of Lesion: MAMMARY GLAND: ADENOCARCINOMA, Dose [Carcinogen]: 0.02% IN THE DIET FOR 52 WK, Promoter: NONE USED) of the same compound?
Answer: 8/20 (40%), 4/20 (20%), 50%, not significant

Question: And the “tumour outcome (control, treated, inhibition, significance)” value (Carcinogen: 2-AMINO-1-METHYL-6-PHENYLIMIDAZO[4,5-B]PYRIDINE [105650-23-5], Dose [Inhibitor]: 0.5% IN DIET FOR 54 WK (STUDY DURATION: 54 WK), Species: RAT, Strain/Sex: F344/DUCRJ/FEMALE, Target Tissue: Type of Lesion: COLON: ADENOMA OR ADENOCARCINOMA, Dose [Carcinogen]: 0.02% IN DIET FOR 54 WK (STUDY DURATION: 54 WK), Promoter: NONE)?
Answer: 3/20 (15%), 1/20 (5%), 67%, not significant

Question: What about the “tumour outcome (control, treated, inhibition, significance)” value (Carcinogen: 2-AMINO-1-METHYL-6-PHENYLIMIDAZO[4,5-B]PYRIDINE [105650-23-5], Dose [Inhibitor]: 0.5% IN DIET FOR 54 WK (STUDY DURATION: 54 WK), Species: RAT, Strain/Sex: F344/DUCRJ/FEMALE, Target Tissue: Type of Lesion: MAMMARY GLAND: ADENOMA OR ADENOCARCINOMA, Dose [Carcinogen]: 0.02% IN DIET FOR 54 WK (STUDY DURATION: 54 WK), Promoter: NONE) of the same compound?
Answer: 8/20 (40%), 4/20 (20%), 50%, not significant

Question: And the “tumour outcome (control, treated, inhibition, significance)” value (Carcinogen: 3,2'-DIMETHYL-4-AMINOBIPHENYL, 13394-86-0, Dose [Inhibitor]: 0, 1% IN BASAL DIET BEGINNING POST CARCINOGEN TREATMENT AND CONTINUING FOR 40 WK (STUDY DURATION: 60 WK), Species: RAT, Strain/Sex: F344/MALE, Target Tissue: Type of Lesion: LARGE INTESTINE: ADENOMA AND ADENOCARCINOMA, Dose [Carcinogen]: 50 MG/KG 1/2 WK FOR 20 WK TO RATS MAINTAINED ON ETHINYL ESTRADIOL CONTAINING DIET (0.75 PPM) FOR 1 WK CYCLED WITH ETHINY, Promoter: ETHINYL ESTRADIOL, 57-63-6)?
Answer: 3/10 (30%), 4/12 (33%), -10%, not significant

Question: And the “tumour outcome (control, treated, inhibition, significance)” value (Carcinogen: 3,2'-DIMETHYL-4-AMINOBIPHENYL, 13394-86-0, Dose [Inhibitor]: 0, 1% IN BASAL DIET BEGINNING POST CARCINOGEN TREATMENT AND CONTINUING FOR 40 WK (STUDY DURATION: 60 WK), Species: RAT, Strain/Sex: F344/MALE, Target Tissue: Type of Lesion: PREPUTIAL GLAND: ADENOMA AND CARCINOMA, Dose [Carcinogen]: 50 MG/KG 1/2 WK FOR 20 WK TO RATS MAINTAINED ON ETHINYL ESTRADIOL CONTAINING DIET (0.75 PPM) FOR 1 WK CYCLED WITH ETHINY, Promoter: ETHINYL ESTRADIOL, 57-63-6)?
Answer: 5/10 (50%), 6/12 (50%), 0%, not significant

Question: And the “tumour outcome (control, treated, inhibition, significance)” value (Carcinogen: 3,2'-DIMETHYL-4-AMINOBIPHENYL, 13394-86-0, Dose [Inhibitor]: 0, 1% IN BASAL DIET BEGINNING POST CARCINOGEN TREATMENT AND CONTINUING FOR 40 WK (STUDY DURATION: 60 WK), Species: RAT, Strain/Sex: F344/MALE, Target Tissue: Type of Lesion: SMALL INTESTINE: ADENOMA AND ADENOCARCINOMA, Dose [Carcinogen]: 50 MG/KG 1/2 WK FOR 20 WK TO RATS MAINTAINED ON ETHINYL ESTRADIOL CONTAINING DIET (0.75 PPM) FOR 1 WK CYCLED WITH ETHINY, Promoter: ETHINYL ESTRADIOL, 57-63-6)?
Answer: 2/10 (20%), 1/12 (8%), 60%, not significant

Question: What about the “tumour outcome (control, treated, inhibition, significance)” value (Carcinogen: 3,2'-DIMETHYL-4-AMINOBIPHENYL, 13394-86-0, Dose [Inhibitor]: 0, 1% IN BASAL DIET BEGINNING POST CARCINOGEN TREATMENT AND CONTINUING FOR 40 WK (STUDY DURATION: 60 WK), Species: RAT, Strain/Sex: F344/MALE, Target Tissue: Type of Lesion: SUBCUTIS: TUMOR, Dose [Carcinogen]: 50 MG/KG 1/2 WK FOR 20 WK TO RATS MAINTAINED ON ETHINYL ESTRADIOL CONTAINING DIET (0.75 PPM) FOR 1 WK CYCLED WITH ETHINY, Promoter: ETHINYL ESTRADIOL, 57-63-6) of the same compound?
Answer: 1/10 (10%), 0/12 (0%), 100%, not significant

Question: And the “tumour outcome (control, treated, inhibition, significance)” value (Carcinogen: 3,2'-DIMETHYL-4-AMINOBIPHENYL, 13394-86-0, Dose [Inhibitor]: 0, 1% IN BASAL DIET BEGINNING POST CARCINOGEN TREATMENT AND CONTINUING FOR 40 WK (STUDY DURATION: 60 WK), Species: RAT, Strain/Sex: F344/MALE, Target Tissue: Type of Lesion: ZYMBAL GLAND: ADENOMA AND CARCINOMA, Dose [Carcinogen]: 50 MG/KG 1/2 WK FOR 20 WK TO RATS MAINTAINED ON ETHINYL ESTRADIOL CONTAINING DIET (0.75 PPM) FOR 1 WK CYCLED WITH ETHINY, Promoter: ETHINYL ESTRADIOL, 57-63-6)?
Answer: 2/10 (20%), 1/12 (8%), 60%, not significant
